Data: ChEMBL document CHEMBL4725421, “SMARCA2/4 PROTAC for Targeted Protein Degradation and Cancer Therapy” (ACS Med Chem Lett, 2020)

Key:
Format in all cases: cell-based
[1] = biological target: von Hippel-Lindau disease tumor suppressor/SWI/SNF-related matrix-associated actin-dependent regulator of chromatin subfamily A member 2 (Homo sapiens) (UniProt P51531+P40337); assay: Protac activity at VHL/SMARCA2 in human A549 cells assessed as induction of SMARCA2 bromodomain degradation using rabbit anti-SMARCA2 antibody incubated for 18 hrs by WES capillary electrophoresis relative to initial level
[2] = biological target: von Hippel-Lindau disease tumor suppressor/SWI/SNF-related matrix-associated actin-dependent regulator of chromatin subfamily A member 4 (Homo sapiens, UniProt P40337+P51532); assay: Protac activity at VHL/SMARCA4 in human A549 cells assessed as induction of SMARCA4 bromodomain degradation using anti-SMARCA4 antibody incubated for 18 hrs by WES capillary electrophoresis
[3] = biological target: von Hippel-Lindau disease tumor suppressor/SWI/SNF-related matrix-associated actin-dependent regulator of chromatin subfamily A member 2 (Homo sapiens, UniProt P40337+P51531); assay: Protac activity at VHL/SMARCA2 in human A549 cells assessed as induction of SMARCA2 bromodomain degradation using rabbit anti-SMARCA2 antibody incubated for 18 hrs by WES capillary electrophoresis
[4] = biological target: von Hippel-Lindau disease tumor suppressor/SWI/SNF-related matrix-associated actin-dependent regulator of chromatin subfamily A member 4 (Homo sapiens) (UniProt P51532+P40337); assay: Protac activity at VHL/SMARCA4 in human A549 cells assessed as induction of SMARCA4 bromodomain degradation using anti-SMARCA4 antibody incubated for 18 hrs by WES capillary electrophoresis relative to initial level
Chain of von Hippel-Lindau disease tumor suppressor/SWI/SNF-related matrix-associated actin-dependent regulator of chromatin subfamily A member 4 (Homo sapiens) (P40337 whole entry, looked up): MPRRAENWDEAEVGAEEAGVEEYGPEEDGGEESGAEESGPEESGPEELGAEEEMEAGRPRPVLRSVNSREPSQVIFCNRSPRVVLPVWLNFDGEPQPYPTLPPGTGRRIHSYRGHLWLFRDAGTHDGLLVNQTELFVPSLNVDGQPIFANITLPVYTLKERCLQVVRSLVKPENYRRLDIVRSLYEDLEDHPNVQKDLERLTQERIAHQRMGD
Chain of von Hippel-Lindau disease tumor suppressor/SWI/SNF-related matrix-associated actin-dependent regulator of chromatin subfamily A member 4 (Homo sapiens) (P51532 whole entry, looked up): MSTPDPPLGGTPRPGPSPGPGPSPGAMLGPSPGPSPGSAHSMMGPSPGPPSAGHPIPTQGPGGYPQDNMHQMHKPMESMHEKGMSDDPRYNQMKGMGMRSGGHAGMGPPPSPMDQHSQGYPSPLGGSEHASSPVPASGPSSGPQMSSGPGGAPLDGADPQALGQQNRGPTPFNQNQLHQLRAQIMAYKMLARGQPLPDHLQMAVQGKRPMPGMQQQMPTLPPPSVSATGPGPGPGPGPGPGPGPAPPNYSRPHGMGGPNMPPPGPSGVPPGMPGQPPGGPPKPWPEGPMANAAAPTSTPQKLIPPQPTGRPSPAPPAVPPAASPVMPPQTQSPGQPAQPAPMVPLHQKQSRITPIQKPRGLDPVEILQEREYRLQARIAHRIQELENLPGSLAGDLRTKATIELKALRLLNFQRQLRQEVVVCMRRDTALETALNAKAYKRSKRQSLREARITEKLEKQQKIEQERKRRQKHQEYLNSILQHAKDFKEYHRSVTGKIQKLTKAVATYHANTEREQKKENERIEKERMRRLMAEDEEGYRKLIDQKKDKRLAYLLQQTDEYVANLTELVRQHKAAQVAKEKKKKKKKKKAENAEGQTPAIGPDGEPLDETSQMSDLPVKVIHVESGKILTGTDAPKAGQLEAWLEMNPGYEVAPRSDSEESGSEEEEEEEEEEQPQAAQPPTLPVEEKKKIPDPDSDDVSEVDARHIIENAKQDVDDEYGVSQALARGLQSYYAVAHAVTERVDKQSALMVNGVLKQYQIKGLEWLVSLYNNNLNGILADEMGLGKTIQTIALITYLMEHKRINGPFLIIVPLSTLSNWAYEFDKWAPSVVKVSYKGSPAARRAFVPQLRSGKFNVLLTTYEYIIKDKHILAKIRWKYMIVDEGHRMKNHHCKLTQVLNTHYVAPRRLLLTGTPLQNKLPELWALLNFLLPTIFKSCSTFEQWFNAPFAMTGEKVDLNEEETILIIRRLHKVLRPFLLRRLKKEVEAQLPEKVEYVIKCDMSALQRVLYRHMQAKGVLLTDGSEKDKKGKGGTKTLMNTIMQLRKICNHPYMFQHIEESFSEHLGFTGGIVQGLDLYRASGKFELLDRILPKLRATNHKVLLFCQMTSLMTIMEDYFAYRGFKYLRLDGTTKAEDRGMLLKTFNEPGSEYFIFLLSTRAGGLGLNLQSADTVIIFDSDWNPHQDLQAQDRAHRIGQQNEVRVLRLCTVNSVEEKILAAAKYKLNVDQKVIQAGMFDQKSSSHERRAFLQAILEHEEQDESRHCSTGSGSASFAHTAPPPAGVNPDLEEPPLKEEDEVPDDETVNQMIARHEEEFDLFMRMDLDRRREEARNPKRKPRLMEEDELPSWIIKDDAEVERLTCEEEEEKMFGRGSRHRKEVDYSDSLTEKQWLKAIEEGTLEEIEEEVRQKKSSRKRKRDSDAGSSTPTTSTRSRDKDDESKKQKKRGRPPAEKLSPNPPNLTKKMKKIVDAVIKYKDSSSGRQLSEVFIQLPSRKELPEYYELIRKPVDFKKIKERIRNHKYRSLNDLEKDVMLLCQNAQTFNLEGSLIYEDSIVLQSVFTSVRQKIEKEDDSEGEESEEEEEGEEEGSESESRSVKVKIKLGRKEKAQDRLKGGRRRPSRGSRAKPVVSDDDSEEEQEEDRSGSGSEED

Chain of von Hippel-Lindau disease tumor suppressor/SWI/SNF-related matrix-associated actin-dependent regulator of chromatin subfamily A member 2 (P51531 whole entry): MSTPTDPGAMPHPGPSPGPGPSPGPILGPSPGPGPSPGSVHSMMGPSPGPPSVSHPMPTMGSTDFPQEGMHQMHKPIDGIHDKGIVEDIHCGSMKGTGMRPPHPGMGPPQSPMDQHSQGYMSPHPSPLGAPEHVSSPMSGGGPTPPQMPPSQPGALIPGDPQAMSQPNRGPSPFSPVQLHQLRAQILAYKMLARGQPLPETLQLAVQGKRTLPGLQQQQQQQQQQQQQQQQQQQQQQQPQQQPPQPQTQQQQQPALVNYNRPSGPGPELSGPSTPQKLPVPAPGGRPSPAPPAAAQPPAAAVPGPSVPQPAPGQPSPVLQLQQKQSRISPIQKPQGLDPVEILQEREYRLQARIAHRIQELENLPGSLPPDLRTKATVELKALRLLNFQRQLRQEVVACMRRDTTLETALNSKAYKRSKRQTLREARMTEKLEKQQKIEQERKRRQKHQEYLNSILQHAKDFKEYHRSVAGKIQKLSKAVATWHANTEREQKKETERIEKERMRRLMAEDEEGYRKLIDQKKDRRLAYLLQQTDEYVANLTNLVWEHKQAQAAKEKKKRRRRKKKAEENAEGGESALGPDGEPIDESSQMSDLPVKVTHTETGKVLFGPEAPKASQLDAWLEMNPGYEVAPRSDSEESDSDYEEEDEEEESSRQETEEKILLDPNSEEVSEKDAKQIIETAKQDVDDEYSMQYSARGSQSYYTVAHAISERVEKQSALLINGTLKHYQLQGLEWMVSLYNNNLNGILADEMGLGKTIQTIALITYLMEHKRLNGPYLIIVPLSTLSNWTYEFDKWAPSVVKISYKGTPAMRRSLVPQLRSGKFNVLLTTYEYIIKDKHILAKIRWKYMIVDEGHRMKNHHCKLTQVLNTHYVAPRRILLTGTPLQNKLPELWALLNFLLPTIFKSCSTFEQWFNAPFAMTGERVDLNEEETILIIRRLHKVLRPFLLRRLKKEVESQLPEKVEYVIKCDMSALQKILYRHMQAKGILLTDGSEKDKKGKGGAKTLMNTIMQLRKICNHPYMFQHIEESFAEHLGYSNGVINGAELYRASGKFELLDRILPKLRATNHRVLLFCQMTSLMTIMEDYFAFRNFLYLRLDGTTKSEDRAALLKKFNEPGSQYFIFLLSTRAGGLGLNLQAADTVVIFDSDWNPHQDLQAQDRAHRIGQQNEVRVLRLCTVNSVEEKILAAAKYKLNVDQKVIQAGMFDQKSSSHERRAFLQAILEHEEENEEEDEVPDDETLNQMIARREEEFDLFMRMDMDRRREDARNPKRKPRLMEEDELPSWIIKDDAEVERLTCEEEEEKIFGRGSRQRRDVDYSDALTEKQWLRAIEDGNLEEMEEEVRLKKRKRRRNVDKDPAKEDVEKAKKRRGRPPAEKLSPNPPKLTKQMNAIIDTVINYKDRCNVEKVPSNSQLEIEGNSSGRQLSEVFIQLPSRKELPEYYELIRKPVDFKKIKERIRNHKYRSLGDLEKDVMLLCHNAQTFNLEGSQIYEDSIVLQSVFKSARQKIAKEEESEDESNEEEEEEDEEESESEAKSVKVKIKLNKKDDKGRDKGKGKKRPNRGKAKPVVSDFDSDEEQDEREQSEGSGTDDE
Chain of von Hippel-Lindau disease tumor suppressor/SWI/SNF-related matrix-associated actin-dependent regulator of chromatin subfamily A member 2 (P40337 whole entry): as the sequence (P40337 whole entry, looked up) above
Chain of von Hippel-Lindau disease tumor suppressor/SWI/SNF-related matrix-associated actin-dependent regulator of chromatin subfamily A member 2 (Homo sapiens) (P40337 whole entry, looked up): as above
Chain of von Hippel-Lindau disease tumor suppressor/SWI/SNF-related matrix-associated actin-dependent regulator of chromatin subfamily A member 2 (Homo sapiens) (P51531 whole entry, looked up): as the sequence (P51531 whole entry) above
Chain of von Hippel-Lindau disease tumor suppressor/SWI/SNF-related matrix-associated actin-dependent regulator of chromatin subfamily A member 4 (P51532 whole entry): as the sequence (P51532 whole entry, looked up) above
Chain of von Hippel-Lindau disease tumor suppressor/SWI/SNF-related matrix-associated actin-dependent regulator of chromatin subfamily A member 4 (P40337 whole entry): as the sequence (P40337 whole entry, looked up) above

Cc1ncsc1-c1ccc(CNC(=O)[C@@H]2C[C@@H](O)CN2C(=O)[C@@H](NC(=O)C2(F)CC2)C(C)(C)C)c(OCCc2ccc(CN3CCN(c4cc(-c5ccccc5O)nnc4N)CC3)cc2)c1
Emax [1]: 91% | EC50 [2]: 117 nM | EC50 [3]: 67 nM | Emax [4]: 93%

Cc1ncsc1-c1ccc(CNC(=O)[C@@H]2C[C@@H](O)CN2C(=O)[C@@H](NC(=O)C2(F)CC2)C(C)(C)C)c(OCCOc2ccc(CN3CCN(c4cc(-c5ccccc5O)nnc4N)CC3)cc2)c1
Emax [1]: 98% | EC50 [2]: 16 nM | EC50 [3]: 12 nM | Emax [4]: 97%

Cc1ncsc1-c1ccc(CNC(=O)[C@@H]2C[C@@H](O)CN2C(=O)[C@@H](NC(=O)C2(F)CC2)C(C)(C)C)c(OCCCc2ccc(CN3CCN(c4cc(-c5ccccc5O)nnc4N)CC3)cc2)c1
Emax [1]: 90% | EC50 [2]: 25 nM | EC50 [3]: 58 nM | Emax [4]: 92%

Cc1ncsc1-c1ccc(CNC(=O)[C@@H]2C[C@@H](O)CN2C(=O)[C@@H](NC(=O)C2(F)CC2)C(C)(C)C)c(OCCCOc2ccc(CN3CCN(c4cc(-c5ccccc5O)nnc4N)CC3)cc2)c1
Emax [1]: 99% | EC50 [2]: 16 nM | EC50 [3]: 26 nM | Emax [4]: 100%

Cc1ncsc1-c1ccc(CNC(=O)[C@@H]2C[C@@H](O)CN2C(=O)[C@@H](NC(=O)C2(F)CC2)C(C)(C)C)c(OCCc2ccc(OCCN3CCN(c4cc(-c5ccccc5O)nnc4N)CC3)cc2)c1
Emax [1]: 99% | EC50 [2]: 26 nM | EC50 [3]: 41 nM | Emax [4]: 99%

Cc1ncsc1-c1ccc(CNC(=O)[C@@H]2C[C@@H](O)CN2C(=O)[C@@H](NC(=O)C2(F)CC2)C(C)(C)C)c(OCCc2ccc(CN3CCN(c4cc(-c5ccccc5O)nnc4N)CC3)c(F)c2)c1
Emax [1]: 95% | EC50 [2]: 33 nM | EC50 [3]: 55 nM | Emax [4]: 95%
